Structures can show the parent of a compound that is named as a salt. Blank lines part the entries; values can stand above or below the compound they belong to.
What was measured:
Type in all cases: physicochemical
[1] = Salt form optimization study: hygroscopicity / deliquescence of salts
Text: In another salt from optimization study for the dibasic drug molecule (+/−)-erythro-2-amino-3-hydroxy-3-pyridin-4-yl-1-pyrrolidin-1-yl-propan-1-one, the dihydrochloride was the first salt prepared and characterized. […] The following counterions were used: sulfuric acid, 1-hydroxy-2-naphthoic acid, methanesulfonic acid, naphthalene-2-sulfonic acid, benzenesulfonic acid, (L-) glutamic acid, malonic acid, citric acid, (−)-L-malic acid, lactic acid, ascorbic acid, and acetic acid. Of these the pursuance of mono-acetate, the naphthalene-2-sulfonate and the 1-hydroxy-2-naphthoate salts were recommended. […] The latter salt also represented a large counterion compared to the base and, especially at high doses, this was perceived as a definite disadvantage.

[2] = Dynamic Vapor Sorption (DVS)
[3] = TG-FTIR thermal decomposition
[4] = Differential Scanning Calorimetry (DSC) degradation
[5] = sample of FIG. 11 (crystalline salt)

relative humidity at which the salt deliquesced [1]: 51 % RH
SMILES: N[C@@H](C(=O)N1CCCC1)[C@@H](O)c1ccncc1 (racemic) [acetate salt, (+/−)-erythro-2-amino-3-hydroxy-3-pyridin-4-yl-1-pyrrolidin-1-yl-propan-1-one]

hygroscopicity [1]: hygroscopic
SMILES: N[C@@H](C(=O)N1CCCC1)[C@@H](O)c1ccncc1 (racemic) [dihydrochloride, (+/−)-erythro-2-amino-3-hydroxy-3-pyridin-4-yl-1-pyrrolidin-1-yl-propan-1-one]

hygroscopicity ([2]; amorphous sample, FIG. 17): very hygroscopic
deliquescence ([2]; amorphous sample, FIG. 17, visually confirmed): deliquescent
hygroscopicity [2, 5]: very hygroscopic
relative humidity above which water uptake occurs [2, 5]: above 80 % r.h.
deliquescence ([2]; sample of FIG. 11 (crystalline salt), visually confirmed): deliquescent
degradation temperature ([3]; amorphous sample, FIG. 15): above 160 °C
decomposition temperature ([3]; sample of FIG. 9 (crystalline salt)): above 160 °C
overlapping melting and degradation temperature ([4]; DSC first scan, sample of FIG. 10 (crystalline salt)): ~160 °C
degradation temperature ([4]; DSC, amorphous sample, FIG. 16): above 118 °C
SMILES: N[C@@H](C(=O)N1CCCC1)[C@@H](O)c1ccncc1.O=C(O)C(O)C(O)C(=O)O [(−)-(2R,3S)-2-amino-3-hydroxy-3-pyridin-4-yl-1-pyrrolidin-1-yl-propan-1-one (L)-(+) tartrate]

Reference: patent publication US9540328B2, “(−)-(2R,3S)-2-amino-3-hydroxy-3-pyridin-4-yl-1-pyrrolidin-1-yl-propan-1-one (L)-(+) tartrate salt, its method of production and use” (Allergan, Inc., priority 2013, dated 2017)
